Laboratory results: patent US20230085307A1, “PYRIDAZINONE COMPOUND AND HERBICIDE” (NISSAN CHEMICAL CORPORATION, priority 2019, published 2023)

Legend:
[1] = test system: false cleavers; experiment: Test Example 5: herbicidal effect by foliage application, plastic box (Table 20, symbol Q); assay type: in vivo, false cleavers (Galium spurium); settings: foliage application, 320 g/ha, three weeks after application
How it was run: (§1)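 Foliar spray test: emulsion formulation diluted in water to a set application rate, sprayed onto 14-day-old plants raised in diluvial soil at 25° C to 30° C under glass. Both herbicidal effect and crop effect rated visually three weeks later.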

[2] = test system: redroot pigweed; experiment: Test Example 5: herbicidal effect by foliage application, plastic box (Table 20, symbol N); assay type: in vivo, redroot pigweed (Amaranthus retroflexus); settings: foliage application, 320 g/ha, three weeks after application
How it was run: as §1

[3] = test system: rice flat sedge; experiment: Test Example 3: herbicidal effect by foliage application, Wagner pot (Table 18, symbol E); assay type: in vivo, rice flat sedge (Cyperus iria); settings: 320 g/ha
How it was run: (§2)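 Plants were sown in alluvial soil held under 0.1–0.5 cm standing water and grown 14 days in a greenhouse at 25–30 °C. An emulsifiable formulation, water-diluted to the set dose, was then sprayed onto the foliage, and effects were scored three weeks later using previously defined criteria.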

[4] = test system: Japanese bulrush; experiment: Test Example 1: herbicidal activity, application before weed generation under submerged conditions (Table 16, symbol B); assay type: in vivo, Japanese bulrush (Schoenoplectus juncoides); settings: 320 g/ha applied herbicide
How it was run: (§3)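 Alluvial soil was flooded to 4 cm depth, weed seeds were sown mixed and 2.5-leaf rice seedlings were transplanted. On sowing day, the compound's emulsion, diluted in water to a set dose, was applied to the water surface. Plants grew at 25–30 °C and were scored 0–5 after three weeks.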

[5] = test system: southern crabgrass; experiment: Test Example 5: herbicidal effect by foliage application, plastic box (Table 20, symbol F); assay type: in vivo, southern crabgrass (Digitaria ciliaris); settings: foliage application, 320 g/ha, three weeks after application
How it was run: as §1

[6] = test system: persian speedwell; experiment: Test Example 5: herbicidal effect by foliage application, plastic box (Table 20, symbol R); assay type: in vivo, Persian speedwell (Veronica persica); settings: foliage application, 320 g/ha, three weeks after application
How it was run: as §1

[7] = test system: blackgrass; experiment: Test Example 5: herbicidal effect by foliage application, plastic box (Table 20, symbol J); assay type: in vivo, blackgrass (Alopecurus myosuroides); settings: foliage application, 320 g/ha, three weeks after application
How it was run: as §1

[8] = test system: chickweed; experiment: Test Example 5: herbicidal effect by foliage application, plastic box (Table 20, symbol P); assay type: in vivo, common chickweed (Stellaria media); settings: foliage application, 320 g/ha, three weeks after application
How it was run: as §1

[9] = test system: green foxtail; experiment: Test Example 5: herbicidal effect by foliage application, plastic box (Table 20, symbol G); assay type: in vivo, green foxtail (Setaria viridis); settings: foliage application, 320 g/ha, three weeks after application
How it was run: as §1

[10] = test system: Italian ryegrass; experiment: Test Example 5: herbicidal effect by foliage application, plastic box (Table 20, symbol K); assay type: in vivo, Italian ryegrass (Lolium multiflorum); settings: foliage application, 320 g/ha, three weeks after application
How it was run: as §1

[11] = test system: barnyard grass; experiment: Test Example 3: herbicidal effect by foliage application, Wagner pot (Table 18, symbol H); assay type: in vivo, barnyard grass (Echinochloa crus-galli); settings: 320 g/ha
How it was run: as §2

[12] = test system: wild oat; experiment: Test Example 5: herbicidal effect by foliage application, plastic box (Table 20, symbol I); assay type: in vivo, wild oat (Avena fatua); settings: foliage application, 320 g/ha, three weeks after application
How it was run: as §1

[13] = test system: lambsquarters; experiment: Test Example 5: herbicidal effect by foliage application, plastic box (Table 20, symbol O); assay type: in vivo, lambsquarters (Chenopodium album); settings: foliage application, 320 g/ha, three weeks after application
How it was run: as §1

[14] = test system: windgrass; experiment: Test Example 5: herbicidal effect by foliage application, plastic box (Table 20, symbol L); assay type: in vivo, windgrass (Apera spica-venti); settings: foliage application, 320 g/ha, three weeks after application
How it was run: as §1

[15] = test system: barnyard grass; experiment: Test Example 5: herbicidal effect by foliage application, plastic box (Table 20, symbol H); assay type: in vivo, barnyard grass (Echinochloa crus-galli); settings: foliage application, 320 g/ha, three weeks after application
How it was run: as §1

[16] = test system: velvetleaf; experiment: Test Example 5: herbicidal effect by foliage application, plastic box (Table 20, symbol M); assay type: in vivo, velvetleaf (Abutilon theophrasti); settings: foliage application, 320 g/ha, three weeks after application
How it was run: as §1

[17] = test system: Chinese sprangletop; experiment: Test Example 3: herbicidal effect by foliage application, Wagner pot (Table 18, symbol D); assay type: in vivo, chinese sprangletop (Leptochloa chinensis); settings: 320 g/ha
How it was run: as §2

[18] = test system: late watergrass; experiment: Test Example 1: herbicidal activity, application before weed generation under submerged conditions (Table 16, symbol A); assay type: in vivo, late watergrass (Echinochloa oryzicola); settings: 320 g/ha applied herbicide
How it was run: as §3

## CCCCOc1ccccc1-c1sc2ccccc2c1-c1c(O)c(C)nn(C)c1=O [1-022]
[1]
  herbicidal effect grade, Q: false cleavers: 4 (Herbicidal rate of 70% or more and less than 90%)
[2]
  herbicidal effect grade, N: redroot pigweed: 3 (Herbicidal rate of 40% or more and less than 70%)
[3]
  herbicidal effect on E (rice flat sedge), rating 0-5: 4 (Herbicidal rate of 70% or more and less than 90%)
[4]
  Herbicidal effect on B: Japanese bulrush (grade 0-5): 3 (Herbicidal rate of 40% or more and less than 70%)
[5]
  herbicidal effect grade, F: southern crabgrass: 0 (Herbicidal rate of 5% or less (almost no effect))
[6]
  herbicidal effect grade, R: persian speedwell: 5 (Herbicidal rate of 90% or more (almost completely withered))
[7]
  herbicidal effect grade, J: blackgrass: 0 (Herbicidal rate of 5% or less (almost no effect))
[8]
  herbicidal effect grade, P: chickweed: 5 (Herbicidal rate of 90% or more (almost completely withered))
[9]
  herbicidal effect grade, G: green foxtail: 0 (Herbicidal rate of 5% or less (almost no effect))
[10]
  herbicidal effect grade, K: Italian ryegrass: 0 (Herbicidal rate of 5% or less (almost no effect))
[11]
  herbicidal effect on H (barnyard grass), rating 0-5: 3 (Herbicidal rate of 40% or more and less than 70%)
[12]
  herbicidal effect grade, I: wild oat: 0 (Herbicidal rate of 5% or less (almost no effect))
[13]
  herbicidal effect grade, O: lambsquarters: 0 (Herbicidal rate of 5% or less (almost no effect))
[14]
  herbicidal effect grade, L: windgrass: 0 (Herbicidal rate of 5% or less (almost no effect))
[15]
  herbicidal effect grade, H: barnyard grass: 3 (Herbicidal rate of 40% or more and less than 70%)
[16]
  herbicidal effect grade, M: velvetleaf: 0 (Herbicidal rate of 5% or less (almost no effect))
[17]
  herbicidal effect on D (Chinese sprangletop), rating 0-5: 0 (Herbicidal rate of 5% or less (almost no effect))
[18]
  Herbicidal effect on A: late watergrass (grade 0-5): 2 (Herbicidal rate of 20% or more and less than 40%)
